Results taken from ChEMBL document CHEMBL1134260, “Adamantylaminopyrimidines and -pyridines are potent inducers of tumor necrosis factor-alpha” (2001).
Calls of active or inactive are those of the source. No cut-off for these calls is given here.

Tests used:
[1] = TNF-alpha stimulatory activity in B78/TNF/9 melanoma cells evaluated by ELISA method; type: functional, Mus musculus; set-up: concentration or dose not given beside the values
Mus musculus [2] = species: Mus musculus; experiment: Tested for the ability to stimulate TNF-alpha production in B78-H1 murine melanoma cells transduced with gene for human TNF-alpha, clone-9 at 10 uM concentration; In active; type: functional
[3] = Tested for the ability to stimulate TNF-alpha production in B78-H1 murine melanoma cells transduced with gene for human TNF-alpha, clone-9 at 10 uM concentration; type: functional, Mus musculus
Mus musculus [4] = species: Mus musculus; experiment: Tested for the ability to stimulate TNF-alpha production in B78-H1 murine melanoma cells transduced with gene for human TNF-alpha, clone-9 at 10 nM concentration; In active; type: functional

| SMILES | TNF-alpha production (% of control) [1] | other results |
| --- | --- | --- |
| Cc1cc(Cl)nc(NC23CC4CC(CC(C4)C2)C3)n1 | ~220% |  |
| NC12CC3CC(CC(C3)C1)C2 |  | Enhancement (Mus musculus [2]): inactive |
| c1cc(NC23CC4CC(CC(C4)C2)C3)ccn1 | ~130% |  |
| Clc1ccc(NC23CC4CC(CC(C4)C2)C3)cn1 | ~100% |  |
| Cc1cccc(NC23CC4CC(CC(C4)C2)C3)n1 | ~260% | Enhancement [3]: 10% |
| Brc1ccc(NC23CC4CC(CC(C4)C2)C3)nc1 | ~140% |  |
| Cc1cc(N)nc(NC23CC4CC(CC(C4)C2)C3)n1 | ~180% |  |
| Cc1ccc(NC23CC4CC(CC(C4)C2)C3)nc1 | ~200% |  |
| Cc1cc(C)nc(NC23CC4CC(CC(C4)C2)C3)n1 | ~240% | Enhancement (Mus musculus [4]): inactive |
| Brc1cnc(NC23CC4CC(CC(C4)C2)C3)nc1 | ~150% |  |
| Cc1ccnc(NC23CC4CC(CC(C4)C2)C3)c1 | ~200% |  |
| c1cncc(NC23CC4CC(CC(C4)C2)C3)c1 | ~190% |  |
| c1ccc(NC23CC4CC(CC(C4)C2)C3)nc1 | ~170% | Enhancement (Mus musculus [2]): inactive |
| Cc1cc(C)nc(NC23CC4CC(CC(C4)C2)C3)c1 | ~250% | Enhancement (Mus musculus [2]): inactive |
| c1cnc(NC23CC4CC(CC(C4)C2)C3)nc1 | ~200% |  |
